Source: PubChem BioAssay (NCI)
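Dose response: 5 concentrations. Exposure: 48 h. Format: 96-well plates. Endpoint: linear interpolation; highest concentration if not reached. GI50 = concentration required for 50% inhibition of growth. TGI is the concentration that stops growth completely.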

How the values were obtained:
Test in all cases: inhibition of tumour cell growth, NCI panel, 48 h
HCC-2998 colon = test system: HCC-2998 colon
DU-145 prostate = test system: DU-145 prostate
CCRF-CEM leukemia = test system: CCRF-CEM leukemia
SF-268 CNS = test system: SF-268 CNS
MOLT-4 leukemia = test system: MOLT-4 leukemia
A549 NSCLC = test system: A549 NSCLC
NCI-H23 lung = test system: NCI-H23 lung
NCI-H522 lung = test system: NCI-H522 lung
RXF 393 renal = test system: RXF 393 renal
OVCAR-5 ovarian = test system: OVCAR-5 ovarian

Structure (SMILES) | GI50 (HCC-2998 colon) [µM] | TGI (HCC-2998 colon) [µM] | GI50 (DU-145 prostate) [µM] | TGI (DU-145 prostate) [µM] | GI50 (CCRF-CEM leukemia) [µM] | TGI (CCRF-CEM leukemia) [µM] | GI50 (SF-268 CNS) [µM] | TGI (SF-268 CNS) [µM] | GI50 (MOLT-4 leukemia) [µM] | TGI (MOLT-4 leukemia) [µM] | GI50 (A549 NSCLC) [µM] | TGI (A549 NSCLC) [µM] | GI50 (NCI-H23 lung) [µM] | TGI (NCI-H23 lung) [µM] | GI50 (NCI-H522 lung) [µM] | TGI (NCI-H522 lung) [µM] | GI50 (RXF 393 renal) [µM] | TGI (RXF 393 renal) [µM] | GI50 (OVCAR-5 ovarian) [µM] | TGI (OVCAR-5 ovarian) [µM]
O=C(Nc1ccccc1OC(=O)c1ccccc1)c1ccccc1 | 30.1 | > 100 | 23.1 | 88.7 | 5.87 | > 100 | 3.98 | > 100 | 3.55 | > 100 | 16.5 | > 100 | 8.05 | > 100 | 11.2 | 77.9 | 50.9 | > 100 | 51.5 | > 100
CN1CCN(CCCCCN=c2cc3c(=O)n(CCCCCN4CCN(C)CC4)c(=O)c4c(NCCCCCN5CCN(C)CC5)cc5c(O)n(CCCCCN6CCN(C)CC6)c(=O)c2c5c4-3)CC1 | 5.79 | 24.4 | 3.08 | 10.3 | 2.69 | 26 | 2.07 | 6.09 | 4.85 | > 100 | 2.92 | 8.64 | 6.65 | 46.3 | 1.46 | 3.93 | 24.3 | > 100 | 2.13 | 7.79
O=Nc1c(-c2c(O)[nH]c3ncccc23)[nH]c2ccccc12 | > 24.4 | > 100 | > 23.9 | > 100 | 5.07 | > 100 | > 100 | > 100 | 3.4 | > 100 | 5.71 | > 100 | > 100 | > 100 | > 53.6 | > 100 | > 100 | > 100 | 96.9 | > 100
COc1cc2cc(Oc3ccc(NC(=O)c4ccc(Cl)c(Cl)c4)cc3)c(C)nc2cc1OC | > 100 | > 100 | > 100 | > 100 | 4.44 | > 100 | > 100 | > 100 | 6.12 | > 100 | > 100 | > 100 | 6.68 | > 100 | 6.27 | > 100 | 9.66 | > 100 | > 100 | > 100
Nc1nc(N)c(CCCCc2ccccc2)c(N)n1 |  | > 100 |  | > 100 |  | > 100 |  | > 100 |  | > 100 |  | > 100 |  | > 100 |  | > 100 |  | > 100 |  | > 100
O=C1C(OCCOc2ccccc2)=C(OCCOc2ccccc2)C(=O)c2ccccc21 | 11.6 | > 100 | 7.12 | > 100 | > 100 | > 100 | 6.31 | > 100 | > 100 | > 100 | 4.62 | > 100 | 1.82 | 24.3 | 3.93 | > 100 | 40.2 | > 100 | > 100 | > 100
COc1cc2c(cc1F)C(c1ccccc1Cl)=Nc1c(n[nH]c1C)N2 | 11.3 | 24.1 | 3.46 | 21 | 0.982 | > 100 | 1.14 | 11.7 | 5 | 38.6 | 0.938 | 23.9 | 3.79 | 21 | 0.415 | 20.9 | 0.242 | 1.46 | 6.76 | 22.8
Oc1cc(-n2cccn2)c(O)cc1-n1cccn1 |  | > 100 |  | > 69.5 |  | 19.6 |  | > 82.5 |  | 61.8 |  | > 100 |  | 68.4 |  | 26.8 |  | 37.8 |  | 83.3
COc1cc(C(=O)c2cc(C)c3[nH]c4ccc(O)cc4c3c2C)cc(OC)c1OC | 0.03 | > 37.9 | 0.0351 | > 26.5 | 0.0254 | > 100 | 0.0741 | > 100 | 0.0424 | > 100 | 0.0191 | > 100 | 0.0335 | > 40 | < 0.01 | 2.21 | < 0.01 | 3.11 | 0.0511 | > 100
FC(F)(F)c1cccc(-c2nn3ncccc3c2-c2ccnc(Nc3ccc4c(c3)OCCO4)n2)c1 | 13 | > 25 | 19.2 | > 25 | 0.511 | > 25 | 19.4 | > 25 | 11.8 | > 25 | 12.8 | > 25 | 14.8 | > 25 | 14 | > 25 | 6.83 | > 25 | > 25 | > 25
